Laboratory results taken from ChEMBL document CHEMBL5150060 (J Med Chem, 2022).
Calls of active or inactive are those of the source. No cut-off for these calls is given here.

What was measured:
Histone deacetylase 1 [1] = target: T1, Histone deacetylase 1 (Homo sapiens, UniProt Q13547); test: Inhibition of recombinant human HDAC1 at 1 uM using p53 (Ac-RHKK(Acetyl)-AMC) as substrate preincubated for 5 mins followed by substrate addition and measured after 90 mins by fluorescence based analysis relative to control; conditions: time 95.0 min
Histone deacetylase 1 [2] = target: T1, Histone deacetylase 1; test: Inhibition of recombinant human HDAC1 at 10 uM using p53 (Ac-RHKK(Acetyl)-AMC) as substrate preincubated for 5 mins followed by substrate addition and measured after 90 mins by fluorescence based analysis relative to control; conditions: time 95.0 min
Histone deacetylase 2 [3] = target: T2, Histone deacetylase 2 (Homo sapiens, UniProt Q92769); test: Inhibition of recombinant human HDAC2 at 1 uM using p53 (Ac-RHKK(Acetyl)-AMC) as substrate preincubated for 5 mins followed by substrate addition and measured after 30 mins by fluorescence based analysis relative to control; conditions: time 35.0 min
Histone deacetylase 2 [4] = target: T2, Histone deacetylase 2; test: Inhibition of recombinant human HDAC2 at 10 uM using p53 (Ac-RHKK(Acetyl)-AMC) as substrate preincubated for 5 mins followed by substrate addition and measured after 30 mins by fluorescence based analysis relative to control; conditions: time 35.0 min
Histone deacetylase 3 [5] = target: T3, Histone deacetylase 3 (Homo sapiens, UniProt O15379); test: Inhibition of recombinant human HDAC3 at 1 uM using p53 (Ac-RHKK(Acetyl)-AMC) as substrate preincubated for 5 mins followed by substrate addition and measured after 30 mins by fluorescence based analysis relative to control; conditions: time 35.0 min
Histone deacetylase 3 [6] = target: T3, Histone deacetylase 3; test: Inhibition of recombinant human HDAC3 at 10 uM using p53 (Ac-RHKK(Acetyl)-AMC) as substrate preincubated for 5 mins followed by substrate addition and measured after 30 mins by fluorescence based analysis relative to control; conditions: time 35.0 min
[7] = target: T4, Histone deacetylase 8 (Homo sapiens) (UniProt Q9BY41); test: Inhibition of recombinant human HDAC8 at 1 uM using (Abz-SRGK(thio-TFA)FFRR-NH2) as substrate preincubated for 5 mins followed by substrate addition by fluorescence based analysis relative to control
T4 sequence (whole entry): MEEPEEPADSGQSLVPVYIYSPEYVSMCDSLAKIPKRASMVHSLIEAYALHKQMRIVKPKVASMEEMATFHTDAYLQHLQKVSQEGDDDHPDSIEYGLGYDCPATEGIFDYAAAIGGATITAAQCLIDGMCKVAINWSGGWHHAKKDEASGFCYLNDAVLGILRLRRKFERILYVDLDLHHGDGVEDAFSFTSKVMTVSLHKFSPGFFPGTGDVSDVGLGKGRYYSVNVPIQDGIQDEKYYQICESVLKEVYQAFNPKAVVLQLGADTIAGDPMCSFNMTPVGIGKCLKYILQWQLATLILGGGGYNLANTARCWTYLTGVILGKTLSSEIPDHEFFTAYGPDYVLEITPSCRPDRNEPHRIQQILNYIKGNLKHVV

[8] = target: T4, Histone deacetylase 8 (Homo sapiens); test: Inhibition of recombinant human HDAC8 at 10 uM using (Abz-SRGK(thio-TFA)FFRR-NH2) as substrate preincubated for 5 mins followed by substrate addition by fluorescence based analysis relative to control
HEK293 [9] = test: Cytotoxicity against HEK293 cells assessed as reduction in cell viability at 50 uM after 24 hrs by alamar blue assay; assay type: toxicity, cell-based; conditions: human, hek293, 24 h
Histone deacetylase 1 [10] = target: T1, Histone deacetylase 1; test: Inhibition of recombinant human HDAC1 using p53 (Ac-RHKK(Acetyl)-AMC) as substrate preincubated for 5 mins followed by substrate addition and measured after 90 mins by fluorescence based analysis
Histone deacetylase 2 [11] = target: T2, Histone deacetylase 2; test: Inhibition of recombinant human HDAC2 using p53 (Ac-RHKK(Acetyl)-AMC) as substrate preincubated for 5 mins followed by substrate addition and measured after 30 mins by fluorescence based analysis
Histone deacetylase 3 [12] = target: T3, Histone deacetylase 3; test: Inhibition of recombinant human HDAC3 using p53 (Ac-RHKK(Acetyl)-AMC) as substrate preincubated for 5 mins followed by substrate addition and measured after 30 mins by fluorescence based analysis
Histone deacetylase 8 [13] = target: T5, Histone deacetylase 8 (Homo sapiens, UniProt Q9BY41); test: Inhibition of recombinant human HDAC8 using (Abz-SRGK(thio-TFA)FFRR-NH2) as substrate preincubated for 5 mins followed by substrate addition by fluorescence based analysis
T5 sequence (Q9BY41 whole entry): T4 sequence (whole entry)

Histone deacetylase 4 = Histone deacetylase 4 (Homo sapiens, UniProt P56524); test: Inhibition of HDAC4 (unknown origin)
[14] = target: T6, Protein deacetylase HDAC6 (Homo sapiens, UniProt Q9UBN7); test: Inhibition of recombinant human HDAC6 (unknown origin)
T6 sequence (Q9UBN7 whole entry): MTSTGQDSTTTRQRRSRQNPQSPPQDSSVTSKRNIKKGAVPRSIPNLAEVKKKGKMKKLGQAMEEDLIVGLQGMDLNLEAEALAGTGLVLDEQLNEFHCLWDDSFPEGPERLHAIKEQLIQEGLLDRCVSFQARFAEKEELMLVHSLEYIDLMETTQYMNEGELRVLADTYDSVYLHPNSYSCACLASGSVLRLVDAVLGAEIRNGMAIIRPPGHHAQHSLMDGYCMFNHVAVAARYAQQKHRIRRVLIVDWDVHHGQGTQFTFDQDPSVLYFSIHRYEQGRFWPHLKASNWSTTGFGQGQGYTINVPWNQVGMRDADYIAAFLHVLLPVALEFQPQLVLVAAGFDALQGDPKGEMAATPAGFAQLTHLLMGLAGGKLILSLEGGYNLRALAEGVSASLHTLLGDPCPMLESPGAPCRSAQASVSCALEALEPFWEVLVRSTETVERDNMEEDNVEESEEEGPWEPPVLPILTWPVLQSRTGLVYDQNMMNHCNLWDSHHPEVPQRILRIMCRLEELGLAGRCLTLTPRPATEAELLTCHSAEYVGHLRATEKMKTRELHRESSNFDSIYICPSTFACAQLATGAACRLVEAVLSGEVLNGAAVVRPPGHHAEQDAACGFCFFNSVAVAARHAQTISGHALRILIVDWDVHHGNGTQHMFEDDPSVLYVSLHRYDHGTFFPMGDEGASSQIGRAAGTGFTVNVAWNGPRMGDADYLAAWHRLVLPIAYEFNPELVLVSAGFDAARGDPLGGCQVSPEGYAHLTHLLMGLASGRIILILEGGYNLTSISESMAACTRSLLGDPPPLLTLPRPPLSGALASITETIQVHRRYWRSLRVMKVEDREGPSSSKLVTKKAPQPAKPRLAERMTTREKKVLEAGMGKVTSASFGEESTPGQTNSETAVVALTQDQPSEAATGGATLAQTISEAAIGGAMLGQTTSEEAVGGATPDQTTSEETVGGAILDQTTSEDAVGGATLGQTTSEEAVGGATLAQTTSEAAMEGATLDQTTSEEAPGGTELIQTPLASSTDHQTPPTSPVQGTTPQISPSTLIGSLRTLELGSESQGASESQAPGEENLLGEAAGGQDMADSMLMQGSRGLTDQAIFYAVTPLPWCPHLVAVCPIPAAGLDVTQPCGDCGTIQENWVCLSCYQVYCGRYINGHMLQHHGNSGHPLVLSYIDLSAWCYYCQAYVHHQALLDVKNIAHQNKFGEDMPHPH

Histone deacetylase 11 = target: T7, Histone deacetylase 11 (Homo sapiens, UniProt Q96DB2); test: Inhibition of recombinant human HDAC11 preincubated for 10 mins followed by substrate addition by fluorescence based analysis
T7 sequence (Q96DB2 whole entry): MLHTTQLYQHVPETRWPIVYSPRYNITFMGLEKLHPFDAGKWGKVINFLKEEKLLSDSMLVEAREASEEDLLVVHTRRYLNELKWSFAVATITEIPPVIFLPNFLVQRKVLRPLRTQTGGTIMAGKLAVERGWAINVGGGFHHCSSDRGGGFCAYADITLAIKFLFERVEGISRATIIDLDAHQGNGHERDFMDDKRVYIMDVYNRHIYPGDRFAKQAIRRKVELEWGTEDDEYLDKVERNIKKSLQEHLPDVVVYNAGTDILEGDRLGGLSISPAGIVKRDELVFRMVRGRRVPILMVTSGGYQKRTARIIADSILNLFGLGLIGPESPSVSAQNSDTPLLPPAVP

Histone deacetylase 8 [15] = target: T5, Histone deacetylase 8; test: Competitive inhibition of human HDAC8 using Abz-SRGGK(STFA)FFRR-NH2 (S) as substrate by Lineweaver-burk plot analysis
[16] = target: T4, Histone deacetylase 8 (Homo sapiens); test: Reversible binding affinity to recombinant human HDAC8 incubated for 30 mins by jump dilution method
[17] = Stability of compound in DMEM/DMSO/acetonitrile at pH 7.4 measured after 6 hrs by HPLC analysis; assay type: physicochemical; conditions: read-out: Stability
[18] = Stability of compound in DMEM/DMSO/acetonitrile at pH 7.4 measured after 12 hrs by HPLC analysis; assay type: physicochemical; conditions: read-out: Stability
[19] = Stability of compound in DMEM/DMSO/acetonitrile at pH 7.4 measured after 24 hrs by HPLC analysis; assay type: physicochemical; conditions: read-out: Stability
[20] = Stability of compound in DMEM/DMSO/acetonitrile at pH 7.4 measured after 48 hrs by HPLC analysis; assay type: physicochemical; conditions: read-out: Stability
[21] = Stability of compound in DMEM/DMSO/acetonitrile at pH 7.4 measured after 72 hrs by HPLC analysis; assay type: physicochemical; conditions: read-out: Stability
[22] = target: T4, Histone deacetylase 8 (Homo sapiens); test: Inhibition of HDAC8 in human Jurkat T cells assessed as increase in H3K27 acetylation at 10 uM after 6 hrs by Western blot analysis; assay type: cell-based
HEK293 [23] = test: Cytotoxicity against HEK293 cells assessed as reduction in cell viability after 24 hrs by alamar blue assay; assay type: functional, cell-based; conditions: Homo sapiens, HEK293, 24 h

Sequence of Histone deacetylase 4 (P56524 whole entry): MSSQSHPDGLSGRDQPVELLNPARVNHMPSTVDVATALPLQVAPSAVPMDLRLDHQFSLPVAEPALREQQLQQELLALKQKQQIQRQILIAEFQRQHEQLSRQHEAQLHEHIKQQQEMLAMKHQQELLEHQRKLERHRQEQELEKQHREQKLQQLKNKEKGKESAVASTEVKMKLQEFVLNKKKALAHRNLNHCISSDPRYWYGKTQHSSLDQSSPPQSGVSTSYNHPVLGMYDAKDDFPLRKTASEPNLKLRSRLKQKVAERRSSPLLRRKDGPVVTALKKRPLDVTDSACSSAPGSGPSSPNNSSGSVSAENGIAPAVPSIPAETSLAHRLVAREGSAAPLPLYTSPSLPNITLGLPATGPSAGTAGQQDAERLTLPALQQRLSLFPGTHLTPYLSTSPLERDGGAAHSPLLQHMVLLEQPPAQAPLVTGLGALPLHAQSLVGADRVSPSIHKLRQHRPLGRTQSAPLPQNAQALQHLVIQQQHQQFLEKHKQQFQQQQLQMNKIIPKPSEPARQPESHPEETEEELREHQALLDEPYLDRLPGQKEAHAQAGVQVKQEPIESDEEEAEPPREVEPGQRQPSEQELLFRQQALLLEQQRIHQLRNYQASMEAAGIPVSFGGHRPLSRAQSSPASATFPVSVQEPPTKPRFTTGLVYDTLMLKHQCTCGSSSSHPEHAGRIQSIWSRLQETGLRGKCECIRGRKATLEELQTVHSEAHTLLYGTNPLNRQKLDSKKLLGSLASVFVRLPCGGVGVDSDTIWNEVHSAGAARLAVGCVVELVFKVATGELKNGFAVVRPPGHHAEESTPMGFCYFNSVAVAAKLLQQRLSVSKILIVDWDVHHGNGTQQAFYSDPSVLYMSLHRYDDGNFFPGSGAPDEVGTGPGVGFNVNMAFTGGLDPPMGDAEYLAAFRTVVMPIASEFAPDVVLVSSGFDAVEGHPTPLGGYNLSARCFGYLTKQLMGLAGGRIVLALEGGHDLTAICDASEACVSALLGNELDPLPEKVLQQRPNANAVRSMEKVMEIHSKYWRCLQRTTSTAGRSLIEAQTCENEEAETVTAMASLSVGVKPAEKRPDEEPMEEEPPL
T2 sequence (Q92769 whole entry): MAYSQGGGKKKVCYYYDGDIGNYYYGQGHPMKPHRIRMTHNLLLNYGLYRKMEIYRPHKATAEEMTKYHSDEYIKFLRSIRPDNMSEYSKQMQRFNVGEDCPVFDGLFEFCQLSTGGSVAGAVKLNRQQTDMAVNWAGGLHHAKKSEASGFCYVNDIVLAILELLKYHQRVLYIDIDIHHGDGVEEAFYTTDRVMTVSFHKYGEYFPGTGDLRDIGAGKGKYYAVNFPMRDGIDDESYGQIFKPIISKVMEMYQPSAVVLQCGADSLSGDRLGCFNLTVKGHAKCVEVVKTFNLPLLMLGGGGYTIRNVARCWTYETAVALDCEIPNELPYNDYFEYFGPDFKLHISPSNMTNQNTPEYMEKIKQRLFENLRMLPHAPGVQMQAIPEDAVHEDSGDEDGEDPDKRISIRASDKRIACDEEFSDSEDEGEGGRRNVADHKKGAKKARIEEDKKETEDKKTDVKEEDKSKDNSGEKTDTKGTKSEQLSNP
T3 sequence (O15379 whole entry): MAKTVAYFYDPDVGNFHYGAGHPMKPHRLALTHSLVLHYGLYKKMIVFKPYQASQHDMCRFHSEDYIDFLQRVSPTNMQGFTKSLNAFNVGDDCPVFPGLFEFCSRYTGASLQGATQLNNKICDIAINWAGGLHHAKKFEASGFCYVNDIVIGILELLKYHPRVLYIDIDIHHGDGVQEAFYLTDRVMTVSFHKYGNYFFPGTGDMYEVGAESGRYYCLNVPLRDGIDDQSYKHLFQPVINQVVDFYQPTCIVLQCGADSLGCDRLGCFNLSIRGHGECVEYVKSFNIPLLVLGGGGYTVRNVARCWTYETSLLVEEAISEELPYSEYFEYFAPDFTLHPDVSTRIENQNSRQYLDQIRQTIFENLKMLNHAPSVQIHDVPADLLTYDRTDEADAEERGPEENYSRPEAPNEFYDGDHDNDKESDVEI
T1 sequence (Q13547 whole entry): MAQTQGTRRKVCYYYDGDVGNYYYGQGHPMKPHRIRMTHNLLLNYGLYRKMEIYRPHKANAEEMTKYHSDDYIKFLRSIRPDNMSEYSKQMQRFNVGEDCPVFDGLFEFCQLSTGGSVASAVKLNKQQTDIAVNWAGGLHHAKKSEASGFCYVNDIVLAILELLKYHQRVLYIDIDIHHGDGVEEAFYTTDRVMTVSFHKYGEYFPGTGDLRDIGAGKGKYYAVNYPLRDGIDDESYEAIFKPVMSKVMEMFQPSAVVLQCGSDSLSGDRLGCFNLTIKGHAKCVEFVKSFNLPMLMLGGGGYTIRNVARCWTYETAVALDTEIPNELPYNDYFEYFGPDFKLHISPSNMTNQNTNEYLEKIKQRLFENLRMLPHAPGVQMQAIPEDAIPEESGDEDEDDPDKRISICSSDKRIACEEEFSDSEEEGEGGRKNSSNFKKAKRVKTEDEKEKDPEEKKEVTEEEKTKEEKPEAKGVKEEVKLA

Row | SMILES | Cell viability (HEK293 [9]) | IC50 (Histone deacetylase 1 [10]) | IC50 (Histone deacetylase 2 [11]) | IC50 (Histone deacetylase 3 [12]) | IC50 (Histone deacetylase 8 [13]) | IC50 (Histone deacetylase 4) | IC50 [14] | IC50 (Histone deacetylase 11) | further results
1 | CCCNNC(=O)c1cnc(NCCc2ccccc2)nc1 | 80.5% | – | – | – | – | – | – | – | inhibition (Histone deacetylase 1 [1]): 51%; inhibition (Histone deacetylase 1 [2]): 85%; inhibition (Histone deacetylase 2 [3]): 39%; inhibition (Histone deacetylase 2 [4]): 90%; inhibition (Histone deacetylase 3 [5]): 41%; inhibition (Histone deacetylase 3 [6]): 87%; inhibition [7]: 51%; inhibition [8]: 89%
2 | CCCNNC(=O)c1cnc(NCc2ccccc2)nc1 | 80.9% | 250 nM | 700 nM | 43.2 nM | 1000 nM | > 20000 nM | > 20000 nM | 2000 nM | –
3 | CCCCCCNNC(=O)c1cccc(NCc2ccccc2)c1 | 71.2% | > 20000 nM | > 20000 nM | > 20000 nM | 46 nM | > 20000 nM | > 20000 nM | 8600 nM | –
4 | CCCNNC(=O)c1cnc(N2CCN(Cc3c[nH]c4ccccc34)CC2)nc1 | 47% | 73 nM | 1100 nM | 30 nM | 8.2 nM | > 20000 nM | > 20000 nM | 570 nM | Ki (Histone deacetylase 8 [15]): 5.5 nM; Activity [16]: Active; remaining at 6 h [17]: 81.7%; remaining at 12 h [18]: 83.3%; remaining at 24 h [19]: 82.9%; remaining at 48 h [20]: 27.1%; remaining at 72 h [21]: 31.1%; inhibition [22]: Active
5 | COc1cccc2c1C(=O)c1c(O)c3c(c(O)c1C2=O)C[C@@](O)(C(C)=O)C[C@@H]3O[C@H]1C[C@H](N)[C@H](O)[C@H](C)O1 [DAUNORUBICIN] | – | – | – | – | – | – | – | – | IC50 (HEK293 [23]): 1200 nM
6 | CCCCCCNNC(=O)c1ccc(C)c(NCc2ccccc2)c1 | 41.7% | – | – | – | – | – | – | – | inhibition (Histone deacetylase 1 [1]): 9%; inhibition (Histone deacetylase 1 [2]): 35%; inhibition (Histone deacetylase 2 [3]): 5%; inhibition (Histone deacetylase 2 [4]): 26%; inhibition (Histone deacetylase 3 [5]): 9%; inhibition (Histone deacetylase 3 [6]): 42%; inhibition [7]: 2%; inhibition [8]: 100%
7 | CCCNNC(=O)c1ccc(-c2ccc(CNC(C)=O)cc2)cc1 | 83.9% | 1600 nM | 630 nM | 91 nM | 700 nM | 990 nM | > 20000 nM | 1800 nM | remaining at 6 h [17]: 98.3%; remaining at 12 h [18]: 97.3%; remaining at 24 h [19]: 94.9%; remaining at 48 h [20]: 90.4%; remaining at 72 h [21]: 86.8%
8 | CCCCCCNNC(=O)c1cnc(N2CCN(Cc3c[nH]c4ccccc34)CC2)nc1 | 2.18% | 170 nM | 310 nM | 100 nM | 5.9 nM | > 20000 nM | > 20000 nM | 41 nM | inhibition [22]: Active
